Assay: Solubility of indacaterol maleate and glycopyrrolate
Format: physicochemical
Description: In a formulation it is necessary to be sure that the active pharmaceutical ingredients (API) are dissolved completely.
0.02% tween-80: […].
pH=3 0.02% tween-80: […], adjust pH to 3 with hydrochloric acid. Other solutions were similarly prepared. The percentages mentioned above are percentages by weight.

Solubility (0.02% tween-80): 29.52 mg/100 ml | Solubility (Purified water): 29.95 mg/100 ml | Solubility (in words) (cyclodextrin added): improved significantly | Solubility (in words) (in purified water): not sufficiently soluble | Solubility (pH = 3 0.02% tween-80): 32.17 mg/100 ml | Solubility (pH = 3 2.5% SBECD solution): 351.46 mg/100 ml | Solubility (pH = 3 5% SBECD solution): 539.5 mg/100 ml | Solubility (pH = 3 Purified water): 31.21 mg/100 ml | Solubility (pH = 3.5 0.02% tween-80): 30.8 mg/100 ml | Solubility (pH = 3.5 Purified water): 29.97 mg/100 ml | Solubility (pH = 4 0.02% tween-80): 30.91 mg/100 ml | Solubility (pH = 4 0.5% SBECD solution): 55.523 mg/100 ml | Solubility (pH = 4 1% SBECD solution): 161.866 mg/100 ml | Solubility (pH = 4 2% SBECD solution): 211.4 mg/100 ml | Solubility (pH = 4 5% SBECD solution): 316 mg/100 ml | Solubility (pH = 4 Purified water): 30.82 mg/100 ml | Solubility (pH = 4.5 0.02% tween-80): 30.41 mg/100 ml | Solubility (pH = 4.5 Purified water): 30.32 mg/100 ml | Solubility (pH = 5 0.02% tween-80): 30.84 mg/100 ml | Solubility (pH = 5 Purified water): 28.98 mg/100 ml | Solubility (in words) (tween 80 added): insufficient
Structure (SMILES): CCc1cc2c(cc1CC)CC(NC[C@H](O)c1ccc(O)c3[nH]c(=O)ccc13)C2.O=C(O)/C=C\C(=O)O [Indacaterol Maleate, (R)-5-[2-(5,6-Diethylindan-2-ylamino)-1-hydroxyethyl]-8-hydroxy-1H-quinolin-2-one maleate]
